Laboratory results reported in article PMC9860859, “Design, Development, and Optimisation of Smart Linker Chemistry for Targeted Colonic Delivery—In Vitro Evaluation” (Pharmaceutics, 2023).
Values joined by “and” are separate entries in the source; they are usually repeats but may differ in a detail not shown here. Identical values can stand only once. “Also recorded” adds a separate entry of the source. Each block holds one molecule with its values, some of them ahead of it.

Columns and labels:
[1] = cited from earlier work
[2] = In vitro release assay of probes 13–17 by HPLC in buffers simulating the GIT
Experimental: (§1) Test solutions for probes 13–17 were prepared at 25 µM in a 1:1 mixture of ethanol and the respective buffer. Samples were incubated at 37 °C, then analysed by HPLC using an Agilent 1260 Infinity system, with conditions as follows: Agilent ZORBAX Eclipse Plus C18 Rapid Resolution column, 3.5 μm (4.6 × 100 mm), 95 Å pore size; column temperature, 35 °C; injection volume, 2 μL; flow rate, 1.0 mL min^−1; gradient elution from 5–100% solvent B (0.1% TFA in MeCN) in solvent A (0.1% TFA in ultrapure water) over 9 min, then hold for 1 min at 100% B; UV detection at two wavelengths (254 and 214 nm). The total run time was 10 min, and the retention times of the model compounds CTG and DCM-OH were 4.28 and 6.16 min, respectively. The retention times of probes 13–17 were 4.41, 4.53, 4.58, 5.97, and 6.04 min, respectively. Calibration curves of free fluorophore were constructed at pH values of 1.2, 5.0, 6.5, and 7.5 over the concentration range of 10–100 µM. A concentration of 25 μM was selected to run in the assay as it gave a good instrument response at the selected wavelength. The data at each pH value was fitted by linear regression, yielding equations of the form: y = ax ± b, where y is the peak area and x is the corresponding concentration in µM. Furthermore, the correlation coefficient (R^2) was ≥0.999 in each case, confirming the linearity of the method used under the specified conditions.
(§2) Release assays for probes 13–17 were performed in vitro using pH and temperature conditions chosen to simulate the GIT, with analysis by HPLC. We used KCl/HCl buffer (pH 1.2) and acetate buffer (pH 5.0) to simulate the pH of the stomach and the duodenum, respectively, while PBS (pH 7.5) and phosphate buffer (pH 6.5) were used to mimic the pH of the lower small intestine and the colon. The compounds were dissolved in 1:1 ethanol/buffer and incubated at 37 °C. Aliquots were taken at different time points and analysed by HPLC and LC/MS, as described in Section 2.2. […] Thus, the aforementioned compounds were incubated at pH 1.2 for 5 h to test their stability under conditions simulating the stomach. […] Then, the stability of the probes was tested in simulated duodenum conditions for 30–40 min, reflecting the reported transit time in the duodenum [26].

[3] = parameters: method as in PMID 33979164; conditions: cited from earlier work
[4] = parameters: method as in PMID 33979164; conditions: cited from earlier work; remark: listed apart in the source
[5] = parameters: method as in PMID 33979164; conditions: cited from earlier work; remark: listed apart in the source
[6] = In vitro release of Msl from Msl prodrugs by HPLC in buffers simulating the GIT; type: physicochemical; conditions: pH 7.5, 37 °C, over 2 h, water/buffer 1:1, small intestine-like
[7] = as above; type: physicochemical; conditions: for release of Msl: colon-like conditions (pH 6.5); for Msl release / prodrug stability: 37 °C; for prodrug remained intact: simulated upper GIT conditions
Experimental: We chose Msl as a starting point for putting our prodrug concept into practice. […] Therefore, a new methodology was developed in which prodrug 21 was incubated in 1:1 ethanol/buffer and the HPLC analysis was run with UV detection at 310 nm, as detailed in the Supplementary Materials.
Then, the same compound was incubated at pH 7.5 and 6.5 to measure its stability under conditions mimicking the small intestine and colon, respectively. […] We believed that the formaldehyde released after cyclisation of the linker had initiated the side-reaction according to the mechanism described in detail in Supplementary Materials and supported by literature (Scheme S3).

[8] = parameters: method as in PMID 2219958; conditions: cited from earlier work
[9] = Fluorometric assay of the stability of probes 13 and 16 at pH 7.5 and 6.5; type: physicochemical
Text: page 2: 1. Stability of probe 13 at pH 7.5 and 6.5 using the spectrofluorometric assay. Principal: CTG's fluorescence is reversibly quenched or shifted to another wavelength when the phenol group is conjugated to the pH-sensitive linkers. Upon cyclization of the linker and the release of the free phenol, the fluorescence will be restored (on-mode). Fluorescence can be measured to follow the release of the payload, which is the fluorophore itself. The optical properties of the free fluorophore were measured in 50% DMSO/buffer at pHs 7.5, and 6.5. Since the fluorescence- based assay depends on the difference in fluorescence properties between the free fluorophore and its conjugates, the excitation wavelength must be carefully chosen. […] Secondly, the wavelength that gave a reasonable absorbance rather than maximum absorbance should be chosen to avoid exceeding the detector limits. Finally, a long distance between the excitation and emission wavelengths is preferable to minimize the background fluorescence. Accordingly, the in vitro tests were conducted by measuring the fluorescence at 555 nm after excitation of the probes at 500 nm, as this wavelength achieved the previous requirements. […] The microplate was incubated at 37 °C, and the fluorescence (em: 555 nm, ex: 500 nm) was recorded at every time point until the full release of CTG was obtained. […]

[10] = buffer, pH 5
Experimental: as §1, §2

[11] = pH 1.2 (KCl/HCl buffer/EtOH 1:1), 5 h, 37 °C, 25 µM, stomach-like

Molecule: Cc1cc(C(=O)O)ccc1-c1c2ccc(=O)cc-2oc2cc(O)ccc12 [CTG, 4-Carboxy-2-methyl Tokyo Green]
pKa [1]: 4.33

Molecule: N#CC(C#N)=C1C=C(/C=C/c2ccc(O)cc2)Oc2ccccc21 [DCM-OH, Dicyanomethylene-4H-pyran dye]
pKa [1]: 7.21

Molecule: Nc1ccc(O)c(C(=O)O)c1 [Msl, Mesalamine]
pKa of aromatic amino group (–NH3+) [1]: 6
pKa of carboxylic group (–COOH) [1]: 3
pKa of phenolic group (–OH) [1]: 13.9

half-life at 25 µM ([2]; PBS, pH 7.5): 2.4 ± 0.37 h
half-life at 25 µM ([2]; acetate buffer, pH 5): > 0.583 h
CTG payload released (sustained release) ([2]; colon-like conditions (pH 6.5), over 38 h): > 90%
half-life at 25 µM ([2]; phosphate buffer, pH 6.5): 13.2 ± 0.54 h
CTG payload protected from being released ([2]; small intestine-like conditions, pH 7.5, 2 h): 60%
Molecule: C#CCCCNCCCCOC(=O)OCOc1ccc2c(-c3ccc(C(=O)O)cc3C)c3ccc(=O)cc-3oc2c1.Cl [Probe 15, N-(4-(((((9-(4-Carboxy-2-methylphenyl)-3-oxo-3H-xanthen-6yl)oxy)methoxy)carbonyl)oxy)butyl)pent-4-yn-1-aminium chloride]
fluorophore release / stability under stomach-like conditions ([2]; pH 1.2, 37 °C): excellent stability; also recorded: no detectable fluorophore release; also recorded: stable
fluorophore release / stability under duodenum-like conditions ([2]; pH 5.0, 37 °C): excellent stability; also recorded: no detectable fluorophore release; also recorded: stable

half-life at 25 µM ([2]; PBS, pH 7.5): 0.113 ± 0.012 h
half-life at 25 µM ([2]; acetate buffer, pH 5): 16.4 ± 1.52 h
fluorophore release [2, 11]: 0.5%
free fluorophore detected ([2]; pH 5.0 (acetate buffer/EtOH 1:1), at 35 min, 37 °C): 7%
time to full fluorophore release ([2]; pH 6.5, mimicking the colon, 37 °C): 170 min
time to achieve complete fluorophore release ([2]; pH 7.5, small intestine-like, 37 °C): 40 min
half-life at 25 µM ([2]; phosphate buffer, pH 6.5): 0.467 ± 0.0257 h
Molecule: C#CCCCNCCCOC(=O)OCOc1ccc(/C=C/C2=CC(=C(C#N)C#N)c3ccccc3O2)cc1.Cl [Probe 17, (E)-N-(3-((((4-(2-(4-(Dicyanomethylene)-4H-chromen-2-yl)vinyl)phenoxy)methoxy)carbonyl)oxy)propyl)pent-4-yn-1-aminium chloride]

Molecule: CNCCCOC(=O)OCOc1c(-c2ccc(Oc3ccc(OC(F)(F)F)cc3)cc2F)c(C)nc2cc(OC)c(Cl)cc12 [Prodrug 2]
aqueous solubility compared with the parent drug [3]: improved aqueous solubility
stability under stomach-like conditions [4]: stable
oral bioavailability compared with the parent drug [5]: enhanced oral bioavailability

Molecule: C#CCCCNCCCCOC(=O)OCOc1ccc(N)cc1C(=O)O.Cc1ccc(S(=O)(=O)O)cc1.Cc1ccc(S(=O)(=O)O)cc1 [Prodrug 21, 3-Carboxy-4-((((4-(pent-4-yn-1-ylammonio)butoxy)carbonyl)oxy)methoxy)benzeneaminium-di(4-methylbenzenesulfonate)]
Msl payload released [6]: 20%
release of Msl ([7]; after 24 h): 36%
release of Msl ([7]; after 48 h): 61–68% and 61%
release of Msl ([7]; after 6 d): 93%
Msl release / prodrug stability ([7]; pH 1.2, 5 h, stomach-like): no Msl was released
Msl release / prodrug stability ([7]; pH 5.0, 35 min, duodenum-like): no Msl was released
prodrug remained intact [7]: 77–80%

Msl payload released [6]: 23.5%
release of Msl ([7]; after 48 h): 61–68% and 68%
Msl release / prodrug stability ([7]; pH 1.2, 5 h, stomach-like): fully intact
Msl release / prodrug stability ([7]; pH 5.0, 35 min, duodenum-like): fully intact
prodrug remained intact [7]: 77–80%
Molecule: C#CCCCNCCCOC(=O)OCOc1ccc(N)cc1C(=O)O.Cc1ccc(S(=O)(=O)O)cc1.Cc1ccc(S(=O)(=O)O)cc1 [Prodrug 22, 3-Carboxy-4-((((3-(pent-4-yn-1-ylammonio)propoxy)carbonyl)oxy)methoxy)benzeneaminium-di(4-methylbenzenesulfonate)]

Molecule: CCOC(=O)OC(C)OC1=C(C(=O)Nc2ccccn2)N(C)S(=O)(=O)c2ccccc21 (centres unmarked) [ampiroxicam]
t½ ([8]; pH 1): ≥ 50 h
t½ (hydrolysis) ([8]; pH 6.0–8.5): ≥ 8 h

time to conversion to the free fluorophore ([9]; at both pH 6.5 and pH 7.5, buffer/DMSO 1:1, 37 °C): ≤ 3 min
fluorophore release in fluorometric assay ([9]; pH 7.5 and 6.5, buffer/DMSO 1:1, 37 °C): released immediately
fluorophore release [2, 11]: 3%
fluorophore release ([2]; pH 5.0 (acetate buffer/EtOH 1:1), 30–40 min, 37 °C, duodenum-like): ~ 66%
half-life [10]: 0.343 ± 0.0035 h
Molecule: (E)-N-(3-((((4-(2-(4-(dicyanomethylene)-4H-chromen-2-yl)vinyl)phenoxy)methoxy)carbonyl)oxy)propyl)pent-4-yn-1-aminium chloride [Probe 16]
